These results are taken from patent US20240294533A1, “2-(HET)ARYL-SUBSTITUTED CONDENSED HETEROCYCLE DERIVATIVES AS PEST CONTROL AGENTS” (Bayer Aktiengesellschaft, priority 2021, published 2024).

Holding throughout (type): in vivo
For assay [1], the system named is Spodoptera frugiperda. Put plainly: Spodoptera frugiperda spray test (maize leaf discs). The conditions noted are these: Spodoptera frugiperda, foliar, 168 h, after 7 days, read-out: efficacy. An outline of the steps: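 Maize leaf discs sprayed with compound formulated in acetone/DMF with alkylaryl polyglycol ether emulsifier (1000 ppm) in water, then infested with fall armyworm caterpillars after drying. Efficacy (% caterpillars killed) scored after 7 days; 100% means all killed, 0% none.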

The test system of another assay is Diabrotica balteata. Description: Diabrotica balteata drench test. To be noted: 20 ppm, soil drench, maize, after 8 days. An excerpt: Diabrotica balteata—Drench Test Solvent: 7 parts by weight of dimethylformamide Emulsifier: 2 parts by weight of alkylaryl polyglycol ether An appropriate active ingredient formulation is produced by mixing 1 part by weight of active ingredient with the specified amounts of solvent and emulsifier, and diluting the concentrate to the desired concentration with water, it being necessary to take account of the volume of soil which is drenched. It should be ensured that a concentration of 40 ppm of emulsifier in the soil is not exceeded. Further test concentrations are produced by diluting with water. 5 […] (Zea mays) in each case are sown into pots filled with earth, and the next day the pots are watered with the active ingredient preparation of the desired concentration. After one day, about 25 L2 larvae of the banded cucumber beetle (Diabrotica balteata) are added. After 8 days, efficacy in % is determined. 100% means that all 5 plants have germinated and grown; 0% means that none of the plants has emerged.

In the next assay the test system is Lucilia cuprina. Put plainly: Lucilia cuprina test. The conditions noted are these: 100 ppm, L1 larvae, after 2 days. The method, then:
Lucilia cuprina Test Solvent: dimethyl sulfoxide An appropriate active ingredient formulation is produced by mixing 10 mg of active ingredient with 0.5 ml of dimethyl sulfoxide and diluting the concentrate with water to the desired concentration. About 20 L1 larvae of the Australian sheep blowfly (Lucilia cuprina) are transferred into a test vessel containing minced horsemeat and the active ingredient formulation of the desired concentration. After 2 days, the kill rate in % is determined relative to the untreated control. 100% means that all the larvae have been killed; 0% means that no larvae have been killed.

The test system of a further assay is Phaedon cochleariae. Put plainly: Phaedon cochleariae spray test. To be noted: 100 g/ha, Chinese cabbage leaf discs, after 7 days. An excerpt:
Phaedon cochleariae—Spray Test
Solvent: 78.0 parts by weight of acetone • • 1.5 parts by weight of dimethylformamide
Emulsifier: alkylaryl polyglycol ether
An appropriate active ingredient formulation is produced by dissolving 1 part by weight of active ingredient with the stated parts by weight of solvent and making the solution up to the desired concentration with water containing an emulsifier concentration of 1000 ppm. Further test concentrations are produced by diluting the formulation with emulsifier-containing water.
Discs of Chinese cabbage leaves (Brassica pekinensis) are sprayed with an active ingredient formulation of the desired concentration and, after drying, populated with larvae of the mustard beetle (Phaedon cochleariae).
After 7 days, efficacy in % is determined. 100% means that all the beetle larvae have been killed; 0% means that no beetle larvae have been killed.

The next assay has as its system Boophilus microplus. Description: Boophilus microplus injection test. The conditions noted are these: 20 μg/tick, after 7 days, laying of fertile eggs. The method, then:
Boophilus microplus—Injection Test Solvent: dimethyl sulfoxide An appropriate active ingredient formulation is produced by mixing 10 mg of active ingredient with 0.5 ml of solvent and diluting the concentrate with solvent to the desired concentration. 1 μl of the active ingredient solution is injected into the abdomen of 5 engorged adult female cattle ticks (Boophilus microplus). The ticks are transferred into dishes and kept in a climate-controlled room. Efficacy is checked after 7 days by laying of fertile eggs. Eggs which are not visibly fertile are stored in a climate-controlled cabinet until the larvae hatch after about 42 days. Efficacy of 100% means that none of the ticks has laid any fertile eggs; 0% means that all the eggs are fertile.

Another assay has as its system Nezara viridula. Put plainly: Nezara viridula spray test (infected barley plants sprayed). The conditions noted are these: 100 g ai/ha, after 4 days.
The next assay has as its system Myzus persicae. Description: Myzus persicae oral test. To be noted: 4 ppm, after 5 days. The procedure: Myzus persicae—Oral Test Solvent: 100 parts by weight of acetone An appropriate active ingredient formulation is produced by dissolving 1 part by weight of active ingredient with the specified parts by weight of solvent and making the solution up to the desired concentration with water. 50 μl of the active ingredient formulation is transferred into microtitre plates and made up to a final volume of 200 μl with 150 μl of IPL41 insect medium (33%+15% sugar). Subsequently, the plates are sealed with parafilm, which a mixed population of green peach aphids (Myzus persicae) within a second microtitre plate is able to puncture and imbibe the solution. After 5 days, efficacy in % is determined. 100% means that all the aphids have been killed; 0% means that no aphids have been killed.

Assay [2] deals with Spodoptera frugiperda. Put plainly: Spodoptera frugiperda spray test (SPODFR), comparative. The conditions noted are these: 168 h, cotton leaves, after 7 days, read-out: % Efficacy. The text has this:
Spodoptera frugtiperda—Spray Test (SPODFR) Solvent: 14 parts by weight of dimethylformamide Emulsifier: alkylaryl polyglycol ether An appropriate active ingredient formulation is produced by dissolving 1 part by weight of active ingredient with the stated parts by weight of solvent and making the solution up to the desired concentration with water containing an emulsifier concentration of 1000 ppm. Further test concentrations are produced by diluting the formulation with emulsifier-containing water. If the addition of ammonium salts or/and penetrants is required, these are each added in a concentration of 1000 ppm to the formulation solution. Cotton leaves (Gossypium hirsutum) are sprayed with an active ingredient formulation of the desired concentration and populated with caterpillars of the armyworm (Spodoptera frugiperda). After 7 days, the kill in % is determined. 100% means that all caterpillars have been killed; 0% means that none of the caterpillars have been killed.

`CCS(=O)(=O)c1ccc(-n2ncn(-c3ccc(Cl)cc3)c2=O)nc1-c1nc2cc(C(F)(F)C(F)(F)F)cnc2n1C` [Example I-23]: the pest or weed control at 100 g/ha in the assay on Spodoptera frugiperda [1] was 100%. Further, the efficacy in the assay on Diabrotica balteata is 100%; in the assay with Phaedon cochleariae, 100%; with Boophilus microplus, 90%; in the assay on Nezara viridula, 100%; with Myzus persicae it was 100%. Further, in the assay with Lucilia cuprina, the “efficacy (kill rate)” value is 100%. Also, the Emax at 0.8 ppm with Spodoptera frugiperda [2] amounted to 100%.
